Tested on: HIV-1 single-round infectious reporter virus
Experiment: Single-round infectious HIV-1 luciferase reporter virus infection of HeLa CD4 CCR5 cells
Assay type: cell-based
Conditions: Human immunodeficiency virus 1, HeLa-CD4/CCR5, 72 h, read-out: Group (EC50)
From the text: The materials and experimental procedures used to obtain the results for representative compounds of Formula I reported in Tables 7–9 are described below.
• Virus production—Human embryonic Kidney cell line, 293, propagated in Dulbecco's Modified Eagle Medium (Life Technologies, Gaithersburg, Md.) containing 10% fetal Bovine serum (FBS, Sigma, St. Louis, Mo.). • Virus infection—Human epithelial cell line, HeLa, expressing the HIV-1 receptors CD4 and CCR5 was propagated in Dulbecco's Modified Eagle Medium (Life Technologies, Gaithersburg, Md.) containing 10% fetal Bovine serum (FBS, Sigma, St. Louis, Mo.) and supplemented with 0.2 mg/ml Geneticin (Life Technologies, Gaithersburg, Md.) and 0.4 mg/ml Zeocin (Invitrogen, Carlsbad, Calif.). • Virus—Single-round infectious reporter virus was produced by co-transfecting human embryonic Kidney 293 cells with an HIV-1 envelope DNA expression vector and a proviral cDNA containing an envelope deletion mutation and the luciferase reporter gene inserted in place of HIV-1 nef sequences (Chen et al, Ref. 41). […] Viral infection was monitored by measuring luciferase expression from viral DNA in the infected cells using a luciferase reporter gene assay kit (Roche Molecular Biochemicals, Indianapolis, Ind.). […] Luciferase activity was then quantified by measuring luminescence using a Wallac microbeta scintillation counter. • 5. […]

In the case of C[C@@H]1CN(C(=O)c2ccccc2)CCN1C(=O)C1(c2ccc3ccccc3c2)CC1 [Example 55], the EC50 is reported as less than 1000 nM.

Work on C[C@@H]1CN(C(=O)c2ccccc2)CCN1C(=O)C(F)(F)c1ccc2ccccc2c1 [Example 54] yielded an EC50 of less than 1000 nM.

— US7037913B2, “Bicyclo 4.4.0 antiviral derivatives” (priority 2002, dated 2006)
